Measured values published in ChEMBL document CHEMBL1201862, “PubChem BioAssay data set” (2004).
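Interpolation was linear, between the two tested concentrations surrounding the appropriate level; five concentrations were tested over 48 hours in 96-well plates. GI50 marks 50% less growth.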 Calls of active or inactive are those of the source. No stated cut-off is given here; in the data, active = GI50 up to about 1.1 µM and inactive = higher.

Columns and labels:
Test in all cases: growth of human tumour cells (NCI), 48 h
HOP-62 = tested on: HOP-62
MOLT-4 = tested on: MOLT-4
XF498 = tested on: XF498
SF-268 = tested on: SF-268
NCI-H522 = tested on: NCI-H522
ACHN = tested on: ACHN
KM-20L2 = tested on: KM-20L2
SF-539 = tested on: SF-539
KM12 = tested on: KM12
OVCAR-5 = tested on: OVCAR-5
DMS-273 = tested on: DMS-273
HOP-92 = tested on: HOP-92
SK-MEL-2 = tested on: SK-MEL-2
UO-31 = tested on: UO-31
SK-MEL-5 = tested on: SK-MEL-5
RPMI-8226 = tested on: RPMI-8226
DLD-1 = tested on: DLD-1
T47D = tested on: T47D
MDA-MB-231 = tested on: MDA-MB-231
NCI/ADR-RES = tested on: NCI/ADR-RES

Measured: GI50

COC(=O)C1C(C(=O)OC)C2C(=O)C3C(C(=O)OC)C(C(=O)OC)C3C(=O)C12 (stereo unspecified)
inactive: HOP-62 > 100 µM | MOLT-4 > 100 µM | XF498 > 100 µM | SF-268 > 100 µM | NCI-H522 > 100 µM | ACHN > 100 µM | KM-20L2 > 100 µM | SF-539 > 100 µM | KM12 > 100 µM | OVCAR-5 > 100 µM | DMS-273 > 100 µM | HOP-92 73.5 µM | SK-MEL-2 > 100 µM

COc1ccc(C2C(C(=O)O)=C(CO)Oc3cc4c(cc32)OCO4)c(OC)c1 (stereo unspecified)
inactive: UO-31 36.9 µM | HOP-62 18.8 µM | SK-MEL-5 42.8 µM | MOLT-4 22.5 µM | XF498 9.73 µM | RPMI-8226 > 100 µM | ACHN 63.1 µM | KM-20L2 > 100 µM | SF-539 70 µM | DMS-273 60.3 µM | HOP-92 > 100 µM | DLD-1 54.7 µM

C/C=N\N1C(=O)c2ccccc2C1=O
inactive: UO-31 > 100 µM | HOP-62 > 100 µM | SK-MEL-5 > 100 µM | MOLT-4 > 100 µM | XF498 > 100 µM | SF-268 > 100 µM | RPMI-8226 > 100 µM | ACHN > 100 µM | KM-20L2 > 100 µM | SF-539 > 100 µM | KM12 > 100 µM | OVCAR-5 > 100 µM | DMS-273 > 100 µM | HOP-92 > 100 µM | DLD-1 > 100 µM | SK-MEL-2 > 100 µM

CC12CC(=O)NN=C1c1ccccc1C2 (stereo unspecified)
inactive: UO-31 > 100 µM | HOP-62 > 100 µM | SK-MEL-5 > 100 µM | MOLT-4 > 100 µM | XF498 > 100 µM | SF-268 > 100 µM | RPMI-8226 > 100 µM | NCI-H522 > 100 µM | ACHN > 100 µM | KM-20L2 > 100 µM | SF-539 > 100 µM | KM12 > 100 µM | OVCAR-5 > 100 µM | DMS-273 > 100 µM | DLD-1 > 100 µM | SK-MEL-2 > 100 µM

CCOC(=O)Cn1c(=O)[nH]c(=O)c2c1ncn2Cc1ccccc1
inactive: UO-31 > 100 µM | HOP-62 > 100 µM | SK-MEL-5 > 100 µM | MOLT-4 > 100 µM | XF498 > 100 µM | SF-268 > 100 µM | RPMI-8226 > 100 µM | NCI-H522 > 100 µM | ACHN > 100 µM | KM-20L2 > 100 µM | SF-539 > 100 µM | KM12 > 100 µM | OVCAR-5 > 100 µM | DMS-273 > 100 µM | HOP-92 > 100 µM | DLD-1 > 100 µM | SK-MEL-2 > 100 µM

NC(=S)N/N=C(/CCN1CCCC1)CC(C1=C(O)C2=CCCCC2OC1=O)c1ccccc1 (stereo unspecified)
inactive: UO-31 > 100 µM | HOP-62 > 100 µM | SK-MEL-5 > 100 µM | XF498 > 100 µM | SF-268 > 100 µM | RPMI-8226 > 100 µM | NCI-H522 > 100 µM | ACHN > 100 µM | KM-20L2 > 100 µM | SF-539 > 100 µM | KM12 > 100 µM | OVCAR-5 > 100 µM | HOP-92 32.3 µM | DLD-1 > 100 µM | SK-MEL-2 > 100 µM

COC(=O)C(=NNc1ccccc1[N+](=O)[O-])C(=O)OC
inactive: HOP-62 > 100 µM | MOLT-4 > 100 µM | XF498 41.2 µM | SF-268 > 100 µM | NCI-H522 > 100 µM | ACHN > 100 µM | KM-20L2 > 100 µM | SF-539 > 100 µM | KM12 > 100 µM | OVCAR-5 > 100 µM | DMS-273 > 100 µM | HOP-92 24.1 µM | SK-MEL-2 > 100 µM

O=[N+]([O-])c1ccc(C2=Nn3c(nnc3-c3ccccc3)SC2)o1
inactive: HOP-62 44.3 µM | SK-MEL-5 17.7 µM | MOLT-4 24.3 µM | XF498 19.7 µM | SF-268 20.2 µM | RPMI-8226 5.81 µM | ACHN 19.4 µM | KM-20L2 24.7 µM | SF-539 18.8 µM | KM12 18 µM | OVCAR-5 29.6 µM | DMS-273 20 µM | HOP-92 13.2 µM | DLD-1 14 µM | SK-MEL-2 20.9 µM

COc1cc2cccc(/N=C\c3cccc(OC)c3OC(C)C)c2cc1OC
inactive: UO-31 30.1 µM | HOP-62 26.5 µM | SK-MEL-5 24.8 µM | MOLT-4 19.1 µM | XF498 26.8 µM | SF-268 24.4 µM | RPMI-8226 13.2 µM | NCI-H522 17.9 µM | ACHN 36.6 µM | KM-20L2 51.8 µM | KM12 19 µM | OVCAR-5 > 100 µM | DLD-1 25.6 µM | SK-MEL-2 18 µM

C[N+]1(C)C[C@@H](O)C[C@@H]1C(=O)[O-] [BETONICINE]
inactive: UO-31 > 100 µM | HOP-62 > 100 µM | MOLT-4 > 100 µM | XF498 > 100 µM | SF-268 > 100 µM | RPMI-8226 > 100 µM | NCI-H522 > 100 µM | ACHN > 100 µM | KM-20L2 > 100 µM | SF-539 > 100 µM | KM12 > 100 µM | DMS-273 > 100 µM | HOP-92 > 100 µM | DLD-1 > 100 µM | SK-MEL-2 > 100 µM

Cc1cn([C@H]2C[C@H](N=[N+]=[N-])[C@@H](CO)O2)c(=O)[nH]c1=O [ZIDOVUDINE]
inactive: UO-31 > 100 µM | HOP-62 > 100 µM | SK-MEL-5 118 µM | T47D > 100 µM | MOLT-4 > 100 µM | MDA-MB-231 > 100 µM | RPMI-8226 48.3 µM | NCI/ADR-RES > 96.4 µM | NCI-H522 > 100 µM | ACHN > 100 µM | KM-20L2 > 100 µM | KM12 90.8 µM | OVCAR-5 > 84.5 µM | DMS-273 > 100 µM | HOP-92 > 100 µM | DLD-1 > 100 µM | SK-MEL-2 > 100 µM

CCCN(CCC)C(=O)Cc1c2n(c3ccccc13)Cc1ccccc1-2
inactive: UO-31 35.1 µM | HOP-62 > 100 µM | SK-MEL-5 29.6 µM | MOLT-4 > 100 µM | XF498 > 100 µM | SF-268 > 100 µM | RPMI-8226 59 µM | NCI-H522 40 µM | ACHN 12 µM | KM-20L2 > 100 µM | SF-539 > 100 µM | KM12 > 100 µM | DMS-273 29.1 µM | HOP-92 5 µM | DLD-1 63.4 µM | SK-MEL-2 94.4 µM

O=C(O)[C@H](NS(=O)(=O)c1ccc(F)cc1)c1ccccc1
inactive: UO-31 > 100 µM | HOP-62 > 100 µM | SK-MEL-5 > 100 µM | MOLT-4 > 100 µM | XF498 > 100 µM | SF-268 > 100 µM | RPMI-8226 > 100 µM | NCI-H522 > 100 µM | ACHN > 100 µM | KM-20L2 > 100 µM | SF-539 > 100 µM | OVCAR-5 > 100 µM | DMS-273 > 100 µM | DLD-1 > 100 µM | SK-MEL-2 > 100 µM

N=C(N)NS(=O)(=O)c1ccc(NC(=O)c2cccc3cc4ccccc4nc23)cc1
inactive: UO-31 > 100 µM | HOP-62 94.2 µM | SK-MEL-5 > 100 µM | MOLT-4 5.55 µM | XF498 99.5 µM | SF-268 88.5 µM | RPMI-8226 > 100 µM | NCI-H522 13.5 µM | ACHN 93.8 µM | KM-20L2 > 100 µM | SF-539 25.5 µM | KM12 30.8 µM | OVCAR-5 > 100 µM | DMS-273 > 100 µM | DLD-1 > 100 µM | SK-MEL-2 > 100 µM

O=[N+]([O-])c1ccc(C2=Nn3cnnc3SC2)o1
inactive: UO-31 21.4 µM | HOP-62 38.2 µM | SK-MEL-5 16.4 µM | MOLT-4 20 µM | XF498 16.6 µM | SF-268 19.6 µM | RPMI-8226 14.6 µM | NCI-H522 > 10 µM | ACHN 15.8 µM | SF-539 17.6 µM | KM12 18.3 µM | OVCAR-5 22.2 µM | DMS-273 17.6 µM | HOP-92 26.1 µM | DLD-1 19.6 µM | SK-MEL-2 20.9 µM

COc1cc(Nc2nc3c(N)cc(C(F)(F)F)cc3nc2-c2ccccc2)cc(OC)c1OC
inactive: UO-31 > 100 µM | HOP-62 26.3 µM | SK-MEL-5 19.1 µM | T47D 14.1 µM | MOLT-4 > 100 µM | XF498 19.1 µM | MDA-MB-231 > 42.5 µM | SF-268 33.4 µM | RPMI-8226 > 100 µM | NCI/ADR-RES > 53.2 µM | NCI-H522 28.4 µM | ACHN 42.9 µM | KM-20L2 > 65.5 µM | SF-539 28.1 µM | KM12 72.8 µM | OVCAR-5 > 100 µM | DMS-273 37.9 µM | HOP-92 1.39 µM | SK-MEL-2 51.4 µM

O=C1C2=C(N[C@@H](c3ccccc3)[C@H](c3ccccc3)N2)C(=O)c2ccccc21
inactive: UO-31 > 100 µM | HOP-62 > 100 µM | SK-MEL-5 > 100 µM | MOLT-4 > 100 µM | XF498 > 100 µM | SF-268 > 100 µM | RPMI-8226 > 100 µM | NCI-H522 > 100 µM | ACHN > 100 µM | SF-539 > 100 µM | KM12 > 100 µM | OVCAR-5 > 100 µM | DMS-273 > 100 µM | HOP-92 8.05 µM | DLD-1 > 100 µM | SK-MEL-2 > 100 µM
